Results reported in ChEMBL document CHEMBL1125949, “Synthesis and biological evaluation of 3-amino-2-(4-chlorophenyl)1,1-difluoropropyl phosphonic acid” (Bioorg Med Chem Lett, 1991).

Species on record: Rattus norvegicus
Test: GABA-B agonistic activity in rat anococcygeus
Type: functional

EC50: ~300 µM
SMILES: NCC(c1ccc(Cl)cc1)C(F)(F)P(=O)(O)O (stereo unspecified)
